Experimental data: patent US20040143025A1, “Carbon monoxide generating compunds for treatment of vascular, inflammatory and immune disorders” (priority 2002, published 2004)

Tests used:
HO-1 = HO-1 enzymatic activity in liver homogenates; format: biochemical, rat; conditions: liver after perfusion; ZnPP = 1.5 mg/kg i.p. 24 h before harvest then CO perfusion; CO = CO only
Procedure: HO-1 Enzymatic Activity. Livers were homogenized on ice in a Tris-HCl lysis buffer (pH 7.4) containing 0.5% Triton X-100 and protease inhibitors. Samples were frozen in small aliquots until use. Homogenates (100 μl) were mixed with 0.8 mM NADPH, 0.8 mM glucose-6-phosphate 1.0 unit G-60P dehydrogenase, 1 mM MgCl2 and […] purified rat liver biliverdin reductase at 4° C. The reaction was initiated by the addition of hemin (final concentration 0.25 mM). The reaction mixture was incubated at 37° C. in the dark for 15 min. At the end of incubation period, any insoluble material was removed by centrifugation and supernatants were analyzed for bilirubin concentration. An extinction coefficient of 40 mM^−1 cm^−1 at A 460-530 was used to calculate the amount of bilirubin formed. Controls included naive samples in the absence of the NADPH generating system and all the ingredients of the reaction mixture in the absence of graft homogenates. Biliverdin reductase was purified from rat liver, as described in Browne and Ultrich, Mol. Pharmacol. 32:497-504 (1987).

[1] = tested on: LEW.1W aortic allografts in LEW.1A rats; test: Chronic aorta allograft rejection model, morphometry of intima thickness; format: in vivo, rat; conditions: day 30
Procedure: Animals and aorta transplantation. Transplantations were performed using 250 g inbred male Lewis 1W rats (LEW. 1W, haplotype RT1^u) as donors and LEW.1A rats (haplotype RT1^a) as recipients (CERJ, Le Genest St. Isle, France). These animals are completely mismatched for the entire MHC region. Animal procedures followed European guidelines for animal experimentation. The descending thoracic aortas were harvested, perfused with saline and anastomosed to the recipient's abdominal aorta below the renal arteries and above the aortic bifurcation. Anastomosis was performed in a termino-lateral fashion and the recipient abdominal aorta was ligated between the two-graft anastomosis. […]
MC (Sigma, St. Louis, Mo.) was diluted in olive oil and administered orally on a daily basis (from day 0 to 30) at 500 mg/kg. […] COHb levels were evaluated in heparinized venous blood using the VOXimeter sensor (A-VOX Systems, San Antonio, Tex.) and expressed as the percentage of total hemoglobin. Bicarbonates, soluble CO2, total CO2 and pH were measured using standard clinical biochemistry techniques (Laboratory of Biochemistry, University Hospital of Nantes).
Recombinant adenovirus and gene transfer into the aorta. […] Quantification of infectious adenoviral particles was determined by counting the number of spots (corresponding to individual viral replication events) on infected 293 cells. […]

SMILES	HO-1 enzyme activity (HO-1)	intimal thickening (mean±SEM) ([1]; allogeneic aortic grafts, MC 500 mg/kg orally daily, adenoviruses 10^10 IP into donor aorta) [%]	infiltrating cells in adventitia (HES) [1]
[C-]#[O+] [CO, carbon monoxide]	2.25±0.18 nmol of bilirubin/mg/protein/min		
ClCCl [methylene chloride]		8.3±4.5	moderate reduction
